What was measured:
KRAS^G12C = target: T1, KRAS^G12C (Homo sapiens, UniProt P01116, G12C); test: Biochemical assay: KRAS^G12C activation by SOS1CAT (HTRF, fluorescent GTP loading); settings: 180 min pre-incubation with KRAS before addition of SOS1
T1 construct: KRASG12C (aa 1–169, G12C) were produced for the biochemical assay; made in house
Procedure: (§1) One of the most synthetically accessible compounds, 1,6‐naphthyridin‐5(6H)‐one (1), was prepared (Table 1; Scheme S1). Structurally close to 1, isoquinolin‐1(2H)‐one 2 derivatives were also considered for the exploration of structure‐activity relationships (SAR). To measure the proportion of inhibitor reacting with Cys12 of the KRAS^G12C mutant, the bound/unbound protein ratio was quantified by mass spectrometry (MS). Then, the inhibition potency of these compounds towards KRAS^G12C was evaluated in biochemical assays measuring the activation of GDP‐bound KRAS^G12C or KRAS^WT by SOS1.19 […]
(§2) 3.3 Biochemical activity assays
(§3) Measurement of (i) KRASG12C activation by SOS1CAT and (ii) wild-type KRAS activation by SOS1CAT was performed following the previously described protocol, [19] with a pre-incubation time of the test compound with KRAS proteins extended to 180 min before addi tion of SOS1.
(§4) This assay quantifies SOS1 CAT mediated loading of KRAS G12C–GDP with a fluorescent GTP analogue. Detection of successful loading was achieved by measuring resonance energy transfer from anti-GST-terbium (FRET donor) bound to GST -KRASG12C to the loaded fluorescent GTP analogue (FRET acceptor). The fluorescent GTP analogue EDA –GTP–DY-647P1 [2'/3'-O-(2-aminoethyl-carbamoyl)guanosine-5'-triphosphate labelled with DY-647P1 (Dyomics GmbH, Germany)] was synthesized by Jena Bioscience (Germany) a nd supplied as a 1 mM aqueous solution. A KRASG12C working solution was prepared in assay buffer [10 mM HEPES pH 7.4 (AppliChem), 150 mM NaCl (Sigma), 5 mM MgCl2 (Sigma), 1 mM DTT (Thermo Fisher), 0.05% BSA Fraction V pH 7.0 (ICN Biomedicals), 0.0025% (v/v) Igepal (Sigma)] containing 100 nM GST-KRASG12C and 2 nM anti-GST-terbium (Cisbio, France). A SOS1 CAT working solution was prepared in an assay buffer containing 20 nM SOS1CAT and 200 nM EDA–GTP–DY-647P1. An inhibitor control solution was prepared in an assay buffer containing 200 nM EDA–GTP–DY-647P1 without […]
SOS1CAT. All steps of the assay were performed at 20 °C. A volume of 2.5 µL of the KRASG12C working solution was added to all wells of the test plate using a Multidrop dispenser (Thermo LabSystems). After 180 min, 2.5 µL of the SOS1CAT working solution was added to all wells, except for the inhibitor control solution wells. After 30 min incubation, HTRF was measured. […]
(§5) SYNAPT G2-S quadrupole time-of-flight mass spectrometer connected to a Waters nanoAcquity UPLC system. Samples were loaded on a 2.1 x 5 mm mass prep C4 guard column (Waters) and desalted with a short grad ient (3 min) of increasing concentrations of acetonitrile at a flow rate of 100 µL/min. Spectra were analyzed by using MassLynx v4.1 software and deconvoluted with the MaxEnt1 algorithm. Percent of conversion was determined by the ratio of signal intensiti es of apo-KRAS and KRAS + inhibitor.

KRAS^WT = target: T2, KRAS^WT (Homo sapiens, UniProt P01116); test: Biochemical assay: KRAS^WT activation by SOS1CAT (HTRF, fluorescent GTP loading); settings: 180 min pre-incubation with KRAS before addition of SOS1
T2 construct: The proteins KRASWT (aa 1–169, wild type), SOS1CAT (aa 564–); made in house
T2 sequence (P01116 1-169 isoform P01116-2): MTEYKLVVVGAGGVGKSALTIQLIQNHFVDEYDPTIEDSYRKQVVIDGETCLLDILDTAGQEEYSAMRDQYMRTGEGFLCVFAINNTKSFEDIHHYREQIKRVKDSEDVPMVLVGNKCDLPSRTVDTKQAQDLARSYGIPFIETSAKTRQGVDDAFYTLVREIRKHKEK
Procedure: as §1, §2, §3, §4
SOS1CAT. All steps of the assay were performed at 20 °C. A volume of 2.5 µL of the KRASG12C working solution was added to all wells of the test plate using a Multidrop dispenser (Thermo LabSystems). After 180 min, 2.5 µL of the SOS1CAT working solution was added to all wells, except for the inhibitor control solution wells. After 30 min incubation, HTRF was measured.
In the KRASWT activation by SOS1cat assay, human SOS1CAT mediated loading of GST-KRASWT– GDP was quantified with a fluorescent GTP analogue. The assay was performed as described above for the KRASG12C activation. […]
as §5

T1 sequence (P01116 1-169 isoform P01116-2 G12C): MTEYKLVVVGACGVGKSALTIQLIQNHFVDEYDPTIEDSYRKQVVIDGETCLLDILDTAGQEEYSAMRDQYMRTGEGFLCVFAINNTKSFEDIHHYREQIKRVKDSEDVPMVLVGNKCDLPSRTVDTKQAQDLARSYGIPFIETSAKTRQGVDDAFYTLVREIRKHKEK

IC50 (KRAS^G12C) | IC50 (KRAS^WT) | Compound
1.3 µM | > 20 µM | C=CC(=O)N1CCC(c2cc3cnc(-c4c(O)cccc4F)cc3c(=O)[nH]2)C1 (stereo not drawn) [Compound 13, 7-(2-Fluoro-6-hydroxyphenyl)-3-[1-(prop-2-enoyl)pyrrolidin-3-yl]-2,6-naphthyridin-1(2H)-one]
2.8 µM | > 20 µM | C=CC(=O)N1CCC(c2cc3ncc(-c4c(O)cccc4F)cc3c(=O)[nH]2)C1 (stereo not drawn) [Compound 1, 3-(2-Fluoro-6-hydroxyphenyl)-7-[1-(prop-2-enoyl)pyrrolidin-3-yl]-1,6-naphthyridin-5(6H)-one]
4.7 µM | > 20 µM | C=CC(=O)N1CCC(c2cc3ccc(-c4c(O)cccc4F)cc3c(=O)[nH]2)C1 (stereo not drawn) [Compound 2, 7-(2-Fluoro-6-hydroxyphenyl)-3-[1-(prop-2-enoyl)pyrrolidin-3-yl]isoquinolin-1(2H)-one]
